According to patent publication US20230250096A1, “SUBSTITUTED PHENYL-1H-PYRROLO[2,3-c] PYRIDINE DERIVATIVES” (Janssen Pharmaceutica NV, priority 2021, published 2023):

What was measured:
[1] = target: T1, menin/MLL (terbium chelate-labeled menin, FITC-MBM1 peptide) (Homo sapiens, UniProt O00255, T541A); experiment: Menin/MLL homogenous time-resolved fluorescence (HTRF) assay; format: binding; settings: 30 min incubation
T1 construct: Menin (a.a 1-610-6xhis tag, 2.3 mg/mL in 20 mM Hepes)
T1 sequence (O00255 with tags, fused parts or gaps T541A): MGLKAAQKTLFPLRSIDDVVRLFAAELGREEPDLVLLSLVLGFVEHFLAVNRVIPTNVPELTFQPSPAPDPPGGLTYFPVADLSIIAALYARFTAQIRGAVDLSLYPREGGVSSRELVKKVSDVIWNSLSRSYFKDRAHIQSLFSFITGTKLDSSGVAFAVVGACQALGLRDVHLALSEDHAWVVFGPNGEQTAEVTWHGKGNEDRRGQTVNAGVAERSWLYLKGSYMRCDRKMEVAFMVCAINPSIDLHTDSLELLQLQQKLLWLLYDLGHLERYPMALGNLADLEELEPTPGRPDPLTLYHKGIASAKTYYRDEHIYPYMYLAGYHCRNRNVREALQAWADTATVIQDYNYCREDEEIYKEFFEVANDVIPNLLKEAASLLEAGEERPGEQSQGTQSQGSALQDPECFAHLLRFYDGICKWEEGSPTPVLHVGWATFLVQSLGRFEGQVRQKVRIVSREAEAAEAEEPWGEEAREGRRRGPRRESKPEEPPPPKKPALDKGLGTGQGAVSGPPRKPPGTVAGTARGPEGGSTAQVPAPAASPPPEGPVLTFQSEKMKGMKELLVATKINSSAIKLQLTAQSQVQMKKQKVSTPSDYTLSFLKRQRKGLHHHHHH
Protocol: 1) Menin/MLL Homogenous Time-Resolved Fluorescence (HTRF) Assay
To an untreated, white 384-well microtiter plate was added 40 nL 200× test compound in DMSO and 4 μL 2× terbium chelate-labeled menin (vide infra for preparation) in assay buffer (40 mM Tris HCl, pH 7.5, 50 mM NaCl. 1 mM DTT (dithiothreitol) and 0.05% Pluronic F-127). After incubation of test compound and terbium chelate-labeled menin for 30 min at ambient temperature, 4 μL 2×FITC-MBM1 peptide (FITC-β-alanine-[…]-NH2) (“FITC” means fluorescein isothiocyanate) in assay buffer was added, the microtiter plate centrifuged at 1000 rpm for 1 min and the assay mixtures incubated for 15 min at ambient temperature. The relative amount of menin FITC-MBM1 complex present in an assay mixture is determined by measuring the homogenous time-resolved fluorescence (HTRF) of the terbium/FITC donor/acceptor fluorphore pair using an EnVision microplate reader (ex. 337 nm/terbium em. 490 nm/FITC em. 520 nm) at ambient temperature. The degree of fluorescence resonance energy transfer (the HTRF value) is expressed as the ratio of the fluorescence emission intensities of the FITC and terbium fluorophores (F^em520 nm/F^em490 nm). The final concentrations of reagents in the binding assay are […] terbium chelate-labeled menin, 75 nM FITC-MBM1 peptide and 0.5% DMSO in assay buffer. Dose-response titrations of test compounds are conducted using an 11 point, four-fold serial dilution scheme, starting typically at 10 μM.
Compound potencies were determined by first calculating % inhibition at each compound concentration according to equation 1:
% inhibition=((HC−LC)−(HTRF^compound−LC))/(HC−LC))*100 (Eqn 1)
Where LC and HC are the HTRF values of the assay in the presence or absence of a saturating concentration of a compound that competes with FITC-MBM1 for binding to menin, and HTRF^compound is the measured HTRF value in the presence of the test compound. HC and LC HTRF values represent an average of at least 10 replicates per plate.
% inhibition=Bottom+(Top−Bottom)/(1+10^((log/C50−log[cmpd])*h)) (Eqn 2)
Where Bottom and Top are the lower and upper asymptotes of the dose-response curve, respectively, IC50 is the concentration of compound that yields 50% inhibition of signal and h is the Hill coefficient.
Preparation of Terbium cryptate labeling of Menin: Menin (a.a 1-610-6xhis tag, 2.3 mg/mL in 20 mM Hepes (2-[4-(2-Hydroxyethyl)-1-piperazinyl]ethane sulfonic acid), 80 mM NaCl, 5 mM DTT (Dithiothreitol), pH 7.5) was labeled with terbium cryptate as follows. 200 μg of Menin was buffer exchanged into 1×Hepes buffer. 6.67 μM Menin was incubated with 8-fold molar excess NHS (N-hydroxysuccinimide)-terbium cryptate for 40 minutes at room temperature. Half of the labeled protein was purified away from free label by running the reaction over a NAP5 column with elution buffer (0.1M Hepes, pH 7+0.1% BSA (bovine serum albumin)). The other half was eluted with 0.1 M phosphate buffered saline (PBS), pH7. 400 μl of eluent was collected for each, aliquoted and frozen at −80° C. The final concentration of terbium-labeled Menin protein was 115 μg/mL in Hepes buffer and 85 μg/mL in PBS buffer, respectively.

[2] = system: MEIS1 mRNA expression; experiment: MEIS1 mRNA expression assay (Quantigene Singleplex) in MOLM14 cells; format: cell-based, human; settings: Homo sapiens, MOLM-14, 48 h, 48 hours incubation
Protocol: 2b) MEIS1 mRNA Expression Assay
MEIS1 mRNA expression upon treatment of compound was examined by Quantigene Singleplex assay (Thermo Fisher Scientific). This technology allows for direct quantification of mRNA targets using probes hybridizing to defined target sequences of interest and the signal is detected using a Multimode plate reader Envision (PerkinElmer). The MOLM14 cell line was used for this experiment. Cells were plated in 96-well plates at 3,750 cells/well in the presence of increasing concentrations of compounds. After incubation of 48 hours with compounds, cells were lysed in lysis buffer and incubated for 45 minutes at 55° C. Cell lysates were mixed with human MEIS specific capture probe or human RPL28 (Ribosomal Protein L28) specific probe as a normalization control, as well as blocking probes. Cell lysates were then transferred to the custom assay hybridization plate (Thermo Fisher Scientific) and incubated for 18 to 22 hours at 55° C. Subsequently, plates were washed to remove unbound materials followed by sequential addition of preamplifiers, amplifiers, and label probe. Signals (═gene counts) were measured with a Multimode plate reader Envision. IC50S were calculated by dose-response modelling using appropriate software. For all non-housekeeper genes response equal counts corrected for background and relative expression. For each sample, each test gene signal (background subtracted) was divided by the normalization gene signal (RPL28: background subtracted). Fold changes were calculated by dividing the normalized values for the treated samples by the normalized values for the DMSO treated sample. Fold changes of each target gene were used for the calculation of IC50S.

| IC50 [1] [nM] | IC50 [2] [nM] | Compound |
| --- | --- | --- |
| 0.06 | 20 | Cc1cncc2c1c(C[C@@H]1CCN(C(C)C3CCOCC3)C1)cn2-c1ccc(F)cc1C(=O)N(C)C(C)C (mixture of isomers) [Compound 48] |
| 0.183 | ~895 | Cc1cncc2c1c(C[C@H]1CCN(CC3CCCC(=O)N3)C1)cn2-c1ccc(F)cc1C(=O)N(C)C(C)C (mixture of isomers) [Compound 89] |
| 0.119 | 444 | Cc1cncc2c1c(C[C@@H]1CCN(C3CCNC(=O)CC3)C1)cn2-c1ccc(F)cc1C(=O)N(C)C(C)C (mixture of isomers) [Compound 139] |
| 0.291 | 299 | CC(=O)N1CCCC(N2CC[C@@H](Cc3cn(-c4ccc(F)cc4C(=O)N(C)C(C)C)c4cncc(C)c34)C2)C1 (mixture of isomers) [Compound 215] |
| 0.187 | 100 | CC(=O)N1CCCC(N2CC[C@@H](Cc3cn(-c4ccc(F)cc4C(=O)N(C)C(C)C)c4cncc(C)c34)C2)CC1 (mixture of isomers) [Compound 216] |
| 0.103 | 259 | CC(=O)N1CCCC(N2CC[C@H](Cc3cn(-c4ccc(F)cc4C(=O)N(C)C(C)C)c4cncc(C)c34)C2)CC1 (mixture of isomers) [Compound 222] |
| 8.66 | ~3880 | CC(=O)N1CCC(CN2CC[C@H](Cc3cn(-c4ccc(F)cc4S4(=O)=NCCC4)c4cncc(C)c34)C2)CC1 (mixture of isomers) [Compound 224] |
| 0.637 | 340 | CC(=O)NCC(C1CCN(C(C)=O)CC1)N1CC[C@@H](Cc2cn(-c3ccc(F)cc3C(=O)N(C)C(C)C)c3cncc(C)c23)C1 (mixture of isomers) [Compound 225] |
| ~0.068 | 18 | CC(=O)N1CCC(N2CC[C@@H](Cc3cn(-c4ccc(F)cc4C(=O)N(C)C(C)C)c4cncc(C)c34)C2)C(C)(C)C1 (mixture of isomers) [Compound 234] |
| 0.255 | 11 | CC(=O)N1CCC(N2CC[C@@H](Cc3cn(-c4ccc(F)cc4C(=O)N(C)C(C)C)c4cncc(C)c34)C2)C(CO)C1 (mixture of isomers) [Compound 248] |
| 0.071 | 19 | CCN(C(=O)c1cc(F)ccc1-n1cc(C[C@@H]2CCN(CC3CCNC(=O)CC3)C2)c2c(C)cncc21)C(C)C (mixture of isomers) [Compound 254] |
| 0.024 | 36 | COCCN(C)CCC[C@H](C(C)C)N1CC[C@H](Cc2cn(-c3ccc(F)cc3C(=O)N(C)C(C)C)c3cncc(C)c23)C1 (single isomer, unassigned) [Compound 2a] |
| 0.024 | 13 | CC(=O)N1CCN(CCC[C@H](C(C)C)N2CC[C@@H](Cc3cn(-c4ccc(F)cc4C(=O)N(C)C(C)C)c4cncc(C)c34)C2)CC1 (single isomer, unassigned) [Compound 8a] |
| ~7.3 | 44 | CC(=O)N1CCN(CCC[C@@H](C(C)C)N2CC[C@@H](Cc3cn(-c4ccc(F)cc4C(=O)N(C)C(C)C)c4cncc(C)c34)C2)CC1 (single isomer, unassigned) [Compound 8b] |
| 0.975 | 42 | CC(=O)N1CCN(CCC[C@@H](C(C)C)N2CC[C@H](Cc3cn(-c4ccc(F)cc4C(=O)N(C)C(C)C)c4cncc(C)c34)C2)CC1 (single isomer, unassigned) [Compound 9b] |
| 0.019 | 5 | CC(=O)N1C[C@@H]2CN(CCC[C@H](C(C)C)N3CC[C@@H](Cc4cn(-c5ccc(F)cc5C(=O)N(C)C(C)C)c5cncc(Cl)c45)C3)C[C@H]2C1 (single isomer, unassigned) [Compound 18a] |
| 0.017 | 110 | CC(=O)N1C[C@@H]2CN(CCC[C@@H](C(C)C)N3CC[C@@H](Cc4cn(-c5ccc(F)cc5C(=O)N(C)C(C)C)c5cncc(Cl)c45)C3)C[C@H]2C1 (single isomer, unassigned) [Compound 18b] |
| 0.065 | 128 | CC(=O)N1C[C@@H]2CN(CCC[C@@H](C(C)C)N3CC[C@H](Cc4cn(-c5ccc(F)cc5C(=O)N(C)C(C)C)c5cncc(Cl)c45)C3)C[C@H]2C1 (single isomer, unassigned) [Compound 19b] |
| 0.012 | < 4.1 | CC[C@H]([C@H]1C[C@@H](N2C[C@H]3CN(C(C)=O)C[C@@H]3C2)C1)N1CC[C@H](Cc2cn(-c3ccc(F)cc3C(=O)N(C)C(C)C)c3cncc(Cl)c23)C1 (single isomer, unassigned) [Compound 27a] |
| 0.038 | 19 | CC[C@H]([C@H]1C[C@H](N2C[C@H]3CN(C(C)=O)C[C@@H]3C2)C1)N1CC[C@H](Cc2cn(-c3ccc(F)cc3C(=O)N(C)C(C)C)c3cncc(Cl)c23)C1 (single isomer, unassigned) [Compound 27b] |
| 0.038 | 40 | CC[C@@H]([C@H]1C[C@@H](N2C[C@H]3CN(C(C)=O)C[C@@H]3C2)C1)N1CC[C@H](Cc2cn(-c3ccc(F)cc3C(=O)N(C)C(C)C)c3cncc(Cl)c23)C1 (single isomer, unassigned) [Compound 27c] |
| 0.013 | 80 | CC[C@@H]([C@H]1C[C@H](N2C[C@H]3CN(C(C)=O)C[C@@H]3C2)C1)N1CC[C@H](Cc2cn(-c3ccc(F)cc3C(=O)N(C)C(C)C)c3cncc(Cl)c23)C1 (single isomer, unassigned) [Compound 27d] |
| ~0.49 | > 1000 | CC(=O)N1C[C@@H]2CN([C@H]3C[C@@H](CN4CC[C@@H](Cc5cn(-c6ccc(F)cc6C(=O)N(C)C(C)C)c6cncc(C)c56)C4)C3)C[C@H]2C1 (single isomer, unassigned) [Compound 30] |
